The experiment deals with T1, KRas G12C (Homo sapiens, UniProt P01116, G12C).
T1 construct: NCI-H358 cells (ATCC CRL-5807) express KRas G12C
T1 sequence (P01116 1-188 isoform P01116-2 G12C): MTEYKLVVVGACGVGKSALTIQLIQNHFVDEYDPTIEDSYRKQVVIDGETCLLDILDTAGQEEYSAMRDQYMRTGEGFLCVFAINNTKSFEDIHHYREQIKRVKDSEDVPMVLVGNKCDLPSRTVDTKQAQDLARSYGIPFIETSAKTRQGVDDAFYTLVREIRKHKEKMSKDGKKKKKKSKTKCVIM
The experiment is described as follows: Inhibition of KRas G12C-dependent cell growth: Phospho-ERK in NCI-H358 cells. It counts as cell-based. The following applies: NCI-H358 cells expressing KRas G12C; Phospho-ERK (Thr202/Tyr204) normalized to GAPDH; 3 hours compound; 4 parameter fit. Here is the method: The cellular inhibition of KRAs G12C by exemplary compounds of the present invention was determined by measuring the amount of a downstream marker of KRas activity, phosphorylated ERK (“Phospho-ERK”).
NCI-H358 cells (ATCC CRL-5807) express KRas G12C and were grown in RPMI medium supplemented with 10% fetal bovine serum, penicillin/streptomycin and 10 mM HEPES. Cells were plated in poly-D-Lysine coated 96-well plates at a concentration of 50,000 cells/well and allowed to attach for 8-12 hours. Diluted compounds were then added at a final concentration of 0.5% DMSO. After 3 hours, the medium was removed, 150 μL of 4% formaldehyde was added and the plates were incubated for 20 minutes. The plates were washed with PBS, and permeabilized using 150 μL of ice cold 100% methanol for 10 minutes. Non-specific antibody binding to the plates was blocked using 100 μL Licor Blocking Buffer (Li-Cor Biotechnology, Lincoln Nebr.) for 1 hour at room temperature. Positive control samples and samples lacking cells were parallel processed with test samples as standards.
The amount Phospho-ERK was determined using an antibody specific for the phosphorylated form of ERK and compared to the amount of GAPDH. Primary antibodies used for detection were added as follows: Phospho-ERK (Cell Signaling cs9101) diluted 1:500 and GAPDH (Millipore MAB374) diluted 1:5000 in Licor block+0.05% Tween 20. The plates were incubated for 2 hours at room temperature. The plates were washed with PBS+0.05% Tween 20.
Secondary antibodies used to visualize primary antibodies were added as follows: Anti-rabbit-680 diluted 1:1000 and Anti-mouse-800 diluted 1:1000 in Licor Block+0.05% Tween 20 and incubated for 1 hour at room temperature. The plates were washed with PBS+0.05% Tween 20. A 100 μL aliquot of PBS was added to each well and the plates were read on a LICOR AERIUS plate reader.
The pERK(Thr202/Tyr204) signal was normalized with the GAPDH signal and percent of DMSO control values were calculated. IC50 values were generated using a 4 parameter fit of the dose response curve.
Take `C=C(F)C(=O)N1CCN(c2nc(OC[C@@H]3CCCN3C)nc3c(F)c(-c4cccc5cccc(Cl)c45)ncc23)C[C@@H]1CC#N` [Example 18, 2-((S)-4-(7-(8-chloronaphthalen-1-yl)-8-fluoro-2-(((S)-1-methylpyrrolidin-2-yl)methoxy)pyrido[4,3-d]pyrimidin-4-yl)-1-(2-fluoroacryloyl)piperazin-2-yl)acetonitrile]: the 50% inhibitory concentration (IC50) came out at 50 nM. `C=CC(=O)N1CCN(c2nc(OC[C@@H]3CCCN3C)nc3c(F)c(-c4cccc5cccc(Cl)c45)ncc23)C[C@@H]1CC#N` [Example 19, 2-((S)-1-acryloyl-4-(7-(8-chloronaphthalen-1-yl)-8-fluoro-2-(((S)-1-methylpyrrolidin-2-yl)methoxy)pyrido[4,3-d]pyrimidin-4-yl)piperazin-2-yl)acetonitrile] yielded an IC50 of 2 nM. Under `C=CC(=O)N1CCN(c2nc(OC[C@@H]3CCCN3C)nc3c(F)c(-c4cncc5cccc(Cl)c45)ncc23)C[C@@H]1CC#N` [Example 20, 2-[(2S)-4-[7-(5-chloro-4-isoquinolyl)-8-fluoro-2-[[(2S)-1-methylpyrrolidin-2-yl]methoxy]pyrido[4,3-d]pyrimidin-4-yl]-1-prop-2-enoyl-piperazin-2-yl]acetonitrile] stands 3 nM; under `C=C(F)C(=O)N1CCN(c2nc(OC[C@@H]3CC(F)(F)CN3C)nc3c(F)c(-c4cccc5cccc(Cl)c45)ncc23)C[C@@H]1CC#N` [Example 21, 2-((S)-4-(7-(8-chloronaphthalen-1-yl)-2-(((S)-4,4-difluoro-1-methylpyrrolidin-2-yl)methoxy)-8-fluoropyrido[4,3-d]pyrimidin-4-yl)-1-(2-fluoroacryloyl)piperazin-2-yl)acetonitrile], 105 nM; under `C=C(F)C(=O)N1CCN(c2nc(OC[C@@H]3C[C@@H](OC)CN3C)nc3c(F)c(-c4cccc5cccc(Cl)c45)ncc23)C[C@@H]1CC#N` [Example 22, 2-[(2S)-4-[7-(8-chloro-1-naphthyl)-8-fluoro-2-[[(2S,4R)-4-methoxy-1-methyl-pyrrolidin-2-yl]methoxy]pyrido[4,3-d]pyrimidin-4-yl]-1-(2-fluoroprop-2-enoyl)piperazin-2-yl]acetonitrile], 38 nM. Under `CN1CCC[C@H]1COc1nc(N2CCN(C(=O)/C=C/CF)[C@@H](CC#N)C2)c2cnc(-c3cccc4cccc(Cl)c34)c(F)c2n1` [Example 23, 2-((S)-4-(7-(8-chloronaphthalen-1-yl)-8-fluoro-2-(((S)-1-methylpyrrolidin-2-yl)methoxy)pyrido[4,3-d]pyrimidin-4-yl)-1-((E)-4-fluorobut-2-enoyl)piperazin-2-yl)acetonitrile] stands 18 nM; under `Cc1cccc2cccc(-c3ncc4c(N5CCN(C(=O)/C=C/CF)[C@@H](CC#N)C5)nc(OC[C@@H]5CC(F)(F)CN5C)nc4c3F)c12` [Example 24, 2-((S)-4-(2-(((S)-4,4-difluoro-1-methylpyrrolidin-2-yl)methoxy)-8-fluoro-7-(8-methylnaphthalen-1-yl)pyrido[4,3-d]pyrimidin-4-yl)-1-((E)-4-fluorobut-2-enoyl)piperazin-2-yl)acetonitrile], 109 nM. As to `CN1CC(F)(F)C[C@H]1COc1nc(N2CCN(C(=O)/C=C/CF)[C@@H](CC#N)C2)c2cnc(-c3cccc4cccc(Cl)c34)c(F)c2n1` [Example 25, 2-((S)-4-(7-(8-chloronaphthalen-1-yl)-2-(((S)-4,4-difluoro-1-methylpyrrolidin-2-yl)methoxy)-8-fluoropyrido[4,3-d]pyrimidin-4-yl)-1-((E)-4-fluorobut-2-enoyl)piperazin-2-yl)acetonitrile], it took 13 nM to reach half-maximal inhibition (IC50). Consider `CO[C@@H]1C[C@@H](COc2nc(N3CCN(C(=O)/C=C/CF)[C@@H](CC#N)C3)c3cnc(-c4cccc5cccc(C)c45)c(F)c3n2)N(C)C1` [Example 26, 2-[(2S)-1-[(E)-4-fluorobut-2-enoyl]-4-[8-fluoro-2-[[(2S,4R)-4-methoxy-1-methyl-pyrrolidin-2-yl]methoxy]-7-(8-methyl-1-naphthyl)pyrido[4,3-d]pyrimidin-4-yl]piperazin-2-yl]acetonitrile], for which 55 nM corresponded to half-maximal inhibition (IC50). In turn, `CO[C@@H]1C[C@@H](COc2nc(N3CCN(C(=O)/C=C/CF)[C@@H](CC#N)C3)c3cnc(-c4cccc5cccc(Cl)c45)c(F)c3n2)N(C)C1` [Example 27, 2-[(2S)-4-[7-(8-chloro-1-naphthyl)-8-fluoro-2-[[(2S,4R)-4-methoxy-1-methyl-pyrrolidin-2-yl]methoxy]pyrido[4,3-d]pyrimidin-4-yl]-1-[(E)-4-fluorobut-2-enoyl]piperazin-2-yl]acetonitrile] showed a half-maximal inhibitory concentration (IC50) of 30 nM. `C=C(F)C(=O)N1CCN(c2nc(OCCCN3C[C@@H]4C[C@H]3CO4)nc3c(F)c(-c4cccc5cccc(C)c45)ncc23)C[C@@H]1CC#N` [Example 28, 2-[(2S)-4-[8-fluoro-7-(8-methyl-1-naphthyl)-2-[3-[(1S,4S)-2-oxa-5-azabicyclo[2.2.1]heptan-5-yl]propoxy]pyrido[4,3-d]pyrimidin-4-yl]-1-(2-fluoroprop-2-enoyl)piperazin-2-yl]acetonitrile] registered an IC50 of 260 nM. Regarding `C=C(F)C(=O)N1CCN(c2nc(OCCCN3C[C@@H]4C[C@H]3CO4)nc3c(F)c(-c4cccc5cccc(Cl)c45)ncc23)C[C@@H]1CC#N` [Example 29, 2-[(2S)-4-[7-(8-chloro-1-naphthyl)-8-fluoro-2-[3-[(1S,4S)-2-oxa-5-azabicyclo[2.2.1]heptan-5-yl]propoxy]pyrido[4,3-d]pyrimidin-4-yl]-1-(2-fluoroprop-2-enoyl)piperazin-2-yl]acetonitrile], the IC50 was found to be 85 nM. This IC50 is about 3.1-fold lower than that of the compound before. `Cc1cccc2cccc(-c3ncc4c(N5CCN(C(=O)/C=C/CF)[C@@H](CC#N)C5)nc(OCCCN5C[C@@H]6C[C@H]5CO6)nc4c3F)c12` [Example 30, 2-[(2S)-1-[(E)-4-fluorobut-2-enoyl]-4-[8-fluoro-7-(8-methyl-1-naphthyl)-2-[3-[(1S,4S)-2-oxa-5-azabicyclo[2.2.1]heptan-5-yl]propoxy]pyrido[4,3-d]pyrimidin-4-yl]piperazin-2-yl]acetonitrile] showed an IC50 of 131 nM. This IC50 is about 1.5-fold higher than that of the compound before. In turn, `N#CC[C@H]1CN(c2nc(OCCCN3C[C@@H]4C[C@H]3CO4)nc3c(F)c(-c4cccc5cccc(Cl)c45)ncc23)CCN1C(=O)/C=C/CF` [Example 31, 2-[(2S)-4-[7-(8-chloro-1-naphthyl)-8-fluoro-2-[3-[(1S,4S)-2-oxa-5-azabicyclo[2.2.1]heptan-5-yl]propoxy]pyrido[4,3-d]pyrimidin-4-yl]-1-[(E)-4-fluorobut-2-enoyl]piperazin-2-yl]acetonitrile] came in with a 50% inhibitory concentration (IC50) of 33 nM. Consider `C=C(F)C(=O)N1CCN(c2nc(OC[C@@H]3CCCN3C)nc3c(Cl)c(-c4cccc5cccc(C)c45)ncc23)C[C@@H]1CC#N` [Example 32, 2-[(2S)-4-[8-chloro-7-(8-methyl-1-naphthyl)-2-[[(2S)-1-methylpyrrolidin-2-yl]methoxy]pyrido[4,3-d]pyrimidin-4-yl]-1-(2-fluoroprop-2-enoyl)piperazin-2-yl]acetonitrile], for which the half-inhibitory concentration (IC50) came out at 137 nM.

As to `C=C(F)C(=O)N1CCN(c2nc(OC[C@@H]3CCCN3C)nc3c(C)c(-c4cccc5cccc(C)c45)ncc23)C[C@@H]1CC#N` [Example 33, 2-[(2S)-1-(2-fluoroprop-2-enoyl)-4-[8-methyl-7-(8-methyl-1-naphthyl)-2-[[(2S)-1-methylpyrrolidin-2-yl]methoxy]pyrido[4,3-d]pyrimidin-4-yl]piperazin-2-yl]acetonitrile], inhibition was half-maximal at 79 nM (IC50).

In turn, `C=C(F)C(=O)N1CCN(c2nc(OC[C@@H]3C[C@@H](OC)CN3C)nc3c(F)c(-c4cncc5cccc(C)c45)ncc23)C[C@@H]1CC#N` [Example 34, 2-[(2S)-4-[8-fluoro-2-[[(2S,4R)-4-methoxy-1-methyl-pyrrolidin-2-yl]methoxy]-7-(5-methyl-4-isoquinolyl)pyrido[4,3-d]pyrimidin-4-yl]-1-(2-fluoroprop-2-enoyl)piperazin-2-yl]acetonitrile] gave a half-maximal inhibitory concentration (IC50) of 45 nM. This IC50 lies about 1.8-fold lower than the previous one. In turn, `C=C(F)C(=O)N1CCN(c2nc(OC[C@H]3CCCN3C)nc3c(F)c(-c4cccc5cccc(Cl)c45)ncc23)C[C@@H]1CC#N` [Example 35, 2-[(2S)-4-[7-(8-chloro-1-naphthyl)-8-fluoro-2-[[(2R)-1-methylpyrrolidin-2-yl]methoxy]pyrido[4,3-d]pyrimidin-4-yl]-1-(2-fluoroprop-2-enoyl)piperazin-2-yl]acetonitrile] showed a half-inhibitory concentration (IC50) of 27 nM. Under `CO[C@@H]1C[C@@H](COc2nc(N3CCN(C(=O)/C=C/CF)[C@@H](CC#N)C3)c3cnc(-c4cncc5cccc(C)c45)c(F)c3n2)N(C)C1` [Example 36, 2-[(2S)-1-[(E)-4-fluorobut-2-enoyl]-4-[8-fluoro-2-[[(2S,4R)-4-methoxy-1-methyl-pyrrolidin-2-yl]methoxy]-7-(5-methyl-4-isoquinolyl)pyrido[4,3-d]pyrimidin-4-yl]piperazin-2-yl]acetonitrile] stands 44 nM.

What is called IC50 is the midpoint of a concentration-inhibition curve.

(Values after patent US11548888B2, “KRas G12C inhibitors” (Mirati Therapeutics, Inc., priority 2019, dated 2023).)
